The NIST ThermoML archive (doi:10.1016/j.fluid.2017.09.008)
± gives the expanded uncertainty stated by the source. Blank lines part the entries; values can stand above or below the compound they belong to.

Experiment: excess molar enthalpy (molar enthalpy of mixing); xn = mol fraction of the nth substance listed
Details: 298.15 K, 101 kPa, Liquid, DSC [Setaram C80]

excess molar enthalpy (x1 = 0.0168): -0.00716 ± 0.00526 kcal/mol
excess molar enthalpy (x1 = 0.1988): -0.0907 ± 0.00406 kcal/mol
excess molar enthalpy (x1 = 0.3994): -0.131 ± 0.00263 kcal/mol
excess molar enthalpy (x1 = 0.608): -0.121 ± 0.00311 kcal/mol
excess molar enthalpy (x1 = 0.7783): -0.0568 ± 0.00454 kcal/mol
Structure (SMILES): COc1ccccc1O [2-methoxyphenol] + CCO

Structure (SMILES): Cc1ccccc1O [2-methylphenol] + CCO
excess molar enthalpy (x1 = 0.1954): -0.266 ± 0.00932 kcal/mol
excess molar enthalpy (x1 = 0.4127): -0.387 ± 0.00837 kcal/mol
excess molar enthalpy (x1 = 0.6007): -0.395 ± 0.00884 kcal/mol
excess molar enthalpy (x1 = 0.8013): -0.226 ± 0.0112 kcal/mol

excess molar enthalpy (x1 = 0.2003): -0.189 ± 0.00574 kcal/mol
excess molar enthalpy (x1 = 0.4097): -0.293 ± 0.00406 kcal/mol
excess molar enthalpy (x1 = 0.5861): -0.274 ± 0.00478 kcal/mol
excess molar enthalpy (x1 = 0.7875): -0.164 ± 0.00598 kcal/mol
Structure (SMILES): Cc1cccc(O)c1 [3-methylphenol] + CCO
